Drawing on patent US9555039B2, “Piperidine derivatives and compositions for the inhibition of nicotinamide phosphoribosyltransferase (NAMPT)” (Forma TM, LLC., priority 2011, dated 2017), this text covers IC50 for 31 compounds.

Where two headings read alike, the source gives them in different places.

The subject of one assay is A2780 cells. Put plainly: In-vitro cell proliferation assay (SRB, 72 hours). To be noted: sulforhodamine B (SRB) assay. The assay is classed as cell-based. The essentials:
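Viable cells measured by TCA fixation and SRB staining, absorbance 570 nm; % inhibition vs DMSO control after media-only background subtraction, interpolated between two bracketing concentrations.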
On the technique in general: In SRB staining, fixed cells bind dye roughly in proportion to their protein.

The target in assay [1] is T1, Recombinant His-tagged NAMPT (Homo sapiens, UniProt P43490).
T1 construct: His; host or cells: E. coli
Put plainly: Biochemical inhibition assay: NAMPT enzymatic reaction, NMN quantified by mass spectrometry. As to conditions: 33 nM NAMPT, 1 μM NAM, 100 μM PRPP, 30 minutes at room temperature, read-out: Biochem IC50. A digest of the protocol: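 Reaction 30 min at room temperature with 1 μM NAM, 100 μM PRPP, 2.5 mM ATP (final), quenched with formic acid. NMN quantified by RapidFire electrospray MS, normalized to L-cystathionine; IC50 from percent inhibition versus DMSO.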

T1 sequence (P43490 whole entry): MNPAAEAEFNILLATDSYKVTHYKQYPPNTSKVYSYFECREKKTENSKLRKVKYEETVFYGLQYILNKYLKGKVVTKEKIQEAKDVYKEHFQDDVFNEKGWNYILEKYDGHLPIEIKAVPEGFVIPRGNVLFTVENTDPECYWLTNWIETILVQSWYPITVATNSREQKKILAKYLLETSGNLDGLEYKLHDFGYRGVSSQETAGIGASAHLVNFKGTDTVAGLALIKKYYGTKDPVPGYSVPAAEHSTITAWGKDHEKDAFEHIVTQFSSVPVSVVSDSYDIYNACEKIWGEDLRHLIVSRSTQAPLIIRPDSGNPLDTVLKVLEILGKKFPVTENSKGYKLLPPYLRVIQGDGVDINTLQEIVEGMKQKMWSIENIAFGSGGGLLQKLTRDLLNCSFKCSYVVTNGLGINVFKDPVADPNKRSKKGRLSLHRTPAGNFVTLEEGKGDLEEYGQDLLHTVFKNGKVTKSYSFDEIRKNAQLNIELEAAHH

As usually defined, the IC50 is the concentration needed to halve the response being measured. Regarding `O=C(NCCCCC1CCN(C(=O)c2ccc(F)cc2F)CC1)c1ccc2nccn2c1` [N-(4-{1-[(2,4-difluorophenyl)carbonyl]piperidin-4-yl}butyl)imidazo[1,2-a]pyridine-6-carboxamide], the figures for the half-inhibitory concentration (IC50) (in the assay on A2780 cells (Homo sapiens); in assay [1] (2.5 mM ATP)) were 25.6 nM and 7.1 nM, respectively.
For `O=C(NCCCCC1CCN(C(=O)c2ccc(Cl)cc2)CC1)c1cc2cnccc2[nH]1` [N-(4-{1-[(4-chlorophenyl)carbonyl]piperidin-4-yl}butyl)-1H-pyrrolo[3,2-c]pyridine-2-carboxamide], in that order: 65.7 nM and 114 nM.
For `O=C(NCCCCC1CCN(C(=O)c2ccc(N3CCOCC3)nc2)CC1)c1ccc2nccn2c1` [N-[4-(1-{[6-(morpholin-4-yl)pyridin-3-yl]carbonyl}piperidin-4-yl)butyl]imidazo[1,2-a]pyridine-6-carboxamide] the same measures were 5.9 nM and 12.9 nM.
For `O=C(NCCCCC1CCN(C(=O)c2ccccc2F)CC1)c1cc2cnccc2[nH]1` [N-(4-{1-[(2-fluorophenyl)carbonyl]piperidin-4-yl}butyl)-1H-pyrrolo[3,2-c]pyridine-2-carboxamide] the same measures were 0.5 nM and 7.5 nM.
As for `O=C(NCCCCC1CCN(S(=O)(=O)c2cccc(OC(F)(F)F)c2)CC1)c1cc2cnccc2[nH]1` [N-[4-(1-{[3-(trifluoromethoxy)benzene]sulfonyl}piperidin-4-yl)butyl]-1H-pyrrolo[3,2-c]pyridine-2-carboxamide], the figures for the IC50 (in the assay with A2780 cells; in assay [1] ([…] ATP)) were 18.7 nM and 77.8 nM, respectively.
For the compound `O=C(NCCCCC1CCN(C(=O)c2ccccc2OC(F)(F)F)CC1)c1cc2cnccc2[nH]1` [N-[4-(1-{[2-(trifluoromethoxy)phenyl]carbonyl}piperidin-4-yl)butyl]-1H-pyrrolo[3,2-c]pyridine-2-carboxamide], the IC50 in the assay on A2780 cells (Homo sapiens) turned out to be 1.3 nM; in assay [1] (2.5 mM ATP) it was 20.5 nM.
For `O=C(NCCCCC1CCN(C(=O)c2ccc(OC(F)F)cc2)CC1)c1ccc2nccn2c1` [N-[4-(1-{[4-(difluoromethoxy)phenyl]carbonyl}piperidin-4-yl)butyl]imidazo[1,2-a]pyridine-6-carboxamide] the same measures were 101 nM and 42.7 nM.
For `COc1cccc(C(=O)N2CCC(CCCCNC(=O)c3cc4ccncc4s3)CC2)c1OC` [N-(4-{1-[(2,3-dimethoxyphenyl)carbonyl]piperidin-4-yl}butyl)thieno[2,3-c]pyridine-2-carboxamide], in that order: 5.6 nM and 16.9 nM.
For `O=C(NCCCCC1CCN(S(=O)(=O)c2cccc(Cl)c2)CC1)c1cc2cnccc2[nH]1` [N-(4-{1-[(3-chlorobenzene)sulfonyl]piperidin-4-yl}butyl)-1H-pyrrolo[3,2-c]pyridine-2-carboxamide], the 50% inhibitory concentration (IC50) worked out at 27.7 nM with A2780 cells (Homo sapiens) and 38.8 nM in assay [1] (2.5 mM ATP).
For `O=C(NCCCCC1CCN(C(=O)c2ccc(C(F)(F)F)cc2)CC1)c1ccc2nccn2c1` [N-[4-(1-{[4-(trifluoromethyl)phenyl]carbonyl}piperidin-4-yl)butyl]imidazo[1,2-a]pyridine-6-carboxamide], in that order: 100 to 1000 nM and 152 nM.
For `COc1ccc(C(=O)N2CCC(CCCCNC(=O)c3cc4cnccc4[nH]3)CC2)cc1OC` [N-(4-{1-[(3,4-dimethoxyphenyl)carbonyl]piperidin-4-yl}butyl)-1H-pyrrolo[3,2-c]pyridine-2-carboxamide], in that order: 3 nM and 68.6 nM.
For `O=C(NCCCCC1CCN(C(=O)c2cc(Cl)ccc2Cl)CC1)c1cc2cnccc2[nH]1` [N-(4-{1-[(2,5-dichlorophenyl)carbonyl]piperidin-4-yl}butyl)-1H-pyrrolo[3,2-c]pyridine-2-carboxamide], in that order: 6.1 nM and 51.3 nM.
As for `CCOc1ncccc1C(=O)N1CCC(CCCCNC(=O)c2ccc3nccn3c2)CC1` [N-(4-{1-[(2-ethoxypyridin-3-yl)carbonyl]piperidin-4-yl}butyl)imidazo[1,2-a]pyridine-6-carboxamide], the IC50 turned out to be 0.5 nM in the assay on A2780 cells (Homo sapiens) and 9.2 nM in assay [1] (2.5 mM ATP).
For `O=C(NCCCCC1CCN(C(=O)c2csc(-c3cccnc3)n2)CC1)c1cc2cnccc2[nH]1` [N-[4-(1-{[2-(pyridin-3-yl)-1,3-thiazol-4-yl]carbonyl}piperidin-4-yl)butyl]-1H-pyrrolo[3,2-c]pyridine-2-carboxamide], in that order: 14.9 nM and 81.1 nM.
For `O=C(NCCCCC1CCN(C(=O)c2csc(-c3ccccc3)n2)CC1)c1cc2cnccc2[nH]1` [N-(4-{1-[(2-phenyl-1,3-thiazol-4-yl)carbonyl]piperidin-4-yl}butyl)-1H-pyrrolo[3,2-c]pyridine-2-carboxamide] the same measures were 72.5 nM and 110 nM.
For `CCOc1ccccc1C(=O)N1CCC(CCCCNC(=O)c2ccc3nccn3c2)CC1` [N-(4-{1-[(2-ethoxyphenyl)carbonyl]piperidin-4-yl}butyl)imidazo[1,2-a]pyridine-6-carboxamide] the same measures were 0.7 nM and 5.2 nM.
On to `Cn1cnc(C(=O)N2CCC(CCCCNC(=O)c3cc4cnccc4[nH]3)CC2)c1` [N-(4-{1-[(1-methyl-1H-imidazol-4-yl)carbonyl]piperidin-4-yl}butyl)-1H-pyrrolo[3,2-c]pyridine-2-carboxamide], for which the results for the IC50 (with A2780 cells (Homo sapiens); in assay [1] (2.5 mM ATP)) were 55 nM and 93.7 nM, respectively.
For `Cc1nc(C(=O)N2CCC(CCCCNC(=O)c3ccc4nccn4c3)CC2)cs1` [N-(4-{1-[(2-methyl-1,3-thiazol-4-yl)carbonyl]piperidin-4-yl}butyl)imidazo[1,2-a]pyridine-6-carboxamide], in that order: 61.1 nM and 31.4 nM.
With `COc1ccc(C(=O)N2CCC(CCCCNC(=O)c3cc4ccncc4s3)CC2)cc1` [N-(4-{1-[(4-methoxyphenyl)carbonyl]piperidin-4-yl}butyl)thieno[2,3-c]pyridine-2-carboxamide], the IC50 in the assay on A2780 cells (Homo sapiens) amounted to 80.3 nM; in assay [1] (2.5 mM ATP) it was 52.2 nM.
For `COc1cccc(C(=O)N2CCN(CCCCNC(=O)c3cc4cnccc4[nH]3)CC2)c1` [N-(4-{4-[(3-methoxyphenyl)carbonyl]piperazin-1-yl}butyl)-1H-pyrrolo[3,2-c]pyridine-2-carboxamide] the same measures were 855 nM and 436 nM.
For `CC(C)c1ccc(C(=O)N2CCC(CCCCNC(=O)c3ccc4nccn4c3)CC2)nc1` [N-[4-(1-{[5-(propan-2-yl)pyridin-2-yl]carbonyl}piperidin-4-yl)butyl]imidazo[1,2-a]pyridine-6-carboxamide] the same measures were 52.9 nM and 56.7 nM.
For `O=C(NCCCCC1CCN(C(=O)c2cccc(F)c2)CC1)c1ccc2nccn2c1` [N-(4-{1-[(3-fluorophenyl)carbonyl]piperidin-4-yl}butyl)imidazo[1,2-a]pyridine-6-carboxamide] the same measures were 10.3 nM and 9.2 nM.
Regarding `Cc1nc(CC(=O)N2CCC(CCCCNC(=O)c3cc4cnccc4[nH]3)CC2)cs1` [N-(4-{1-[2-(2-methyl-1,3-thiazol-4-yl)acetyl]piperidin-4-yl}butyl)-1H-pyrrolo[3,2-c]pyridine-2-carboxamide], the 50% inhibitory concentration (IC50) stood at 13.9 nM in the assay with A2780 cells (Homo sapiens) and 49.4 nM in assay [1] (2.5 mM ATP).
For `O=C(NCCCCC1CCN(C(=O)c2ccc3[nH]ccc3c2)CC1)c1cc2cnccc2[nH]1` [N-(4-{1-[(1H-indol-5-yl)carbonyl]piperidin-4-yl}butyl)-1H-pyrrolo[3,2-c]pyridine-2-carboxamide], in that order: 13.5 nM and 39.4 nM.
As for `CC(C)S(=O)(=O)N1CCC(CCCCNC(=O)c2cc3cnccc3[nH]2)CC1` [N-{4-[1-(propane-2-sulfonyl)piperidin-4-yl]butyl}-1H-pyrrolo[3,2-c]pyridine-2-carboxamide], the IC50 in the assay with A2780 cells (Homo sapiens) stood at 23 nM; in assay [1] (2.5 mM ATP) it was 30.6 nM.
For `Cc1nc(C(=O)N2CCC(CCCCNC(=O)c3cc4ccncc4s3)CC2)cs1` [N-(4-{1-[(2-methyl-1,3-thiazol-4-yl)carbonyl]piperidin-4-yl}butyl)thieno[2,3-c]pyridine-2-carboxamide], in that order: 100 to 1000 nM and 22.4 nM.
For `Cc1nc(C(=O)N2CCC(CCCCNC(=O)c3cc4cnccc4[nH]3)CC2)cs1` [N-(4-{1-[(2-methyl-1,3-thiazol-4-yl)carbonyl]piperidin-4-yl}butyl)-1H-pyrrolo[3,2-c]pyridine-2-carboxamide], in that order: 25 nM and 69.5 nM.
For `Cc1ccc(C(=O)N2CCC(CCCCNC(=O)c3cc4ccncc4s3)CC2)cn1` [N-(4-{1-[(6-methylpyridin-3-yl)carbonyl]piperidin-4-yl}butyl)thieno[2,3-c]pyridine-2-carboxamide] the same measures were 100 to 1000 nM and 69.7 nM.
As for `Cc1ccc(F)cc1C(=O)N1CCC(CCCCNC(=O)c2ccc3nccn3c2)CC1` [N-(4-{1-[(5-fluoro-2-methylphenyl)carbonyl]piperidin-4-yl}butyl)imidazo[1,2-a]pyridine-6-carboxamide], the figures for the IC50 (in the assay on A2780 cells (Homo sapiens); in assay [1] (2.5 mM ATP)) were 3.9 nM and 10.9 nM, respectively.
For `CSc1ncccc1C(=O)N1CCC(CCCCNC(=O)c2cc3ccncc3s2)CC1` [N-[4-(1-{[2-(methylsulfanyl)pyridin-3-yl]carbonyl}piperidin-4-yl)butyl]thieno[2,3-c]pyridine-2-carboxamide] the same measures were 1.4 nM and 10.1 nM.
For `O=C(NCCCCC1CCN(C(=O)c2ccc(F)cc2)CC1)c1ccc2nccn2c1` [N-(4-{1-[(4-fluorophenyl)carbonyl]piperidin-4-yl}butyl)imidazo[1,2-a]pyridine-6-carboxamide], in that order: 26.2 nM and 12 nM.
